From the supplement of paper PMC13380429

Columns and labels:
Conditions in all cases: 72 h
Vero E6 [1] = test: drug sensitivity score (DSS) for viability; higher = more toxic; extreme values may be limits of the assay
HepG2 [2] = test: as above
Calu-3 [3] = test: as above
U2OS [4] = test: as above
Caco-2 [5] = test: as above
Vero E6 [6] = test: relative viability EC50 (midpoint between 100% and the lowest measured viability); higher = less toxic
HepG2 [7] = test: as above
Calu-3 [8] = test: as above
U2OS [9] = test: as above
Caco-2 [10] = test: as above
Vero E6 [11] = test: cell viability relative to DMSO; higher = less toxic
HepG2 [12] = test: as above
Calu-3 [13] = test: as above
U2OS [14] = test: as above
Caco-2 [15] = test: as above

Row | SMILES | drug sensitivity score (Vero E6 [1]) | drug sensitivity score (HepG2 [2]) | drug sensitivity score (Calu-3 [3]) | drug sensitivity score (U2OS [4]) | drug sensitivity score (Caco-2 [5]) | relative viability EC50 (Vero E6 [6]) | relative viability EC50 (HepG2 [7]) | relative viability EC50 (Calu-3 [8]) | relative viability EC50 (U2OS [9]) | relative viability EC50 (Caco-2 [10]) | cell viability (Vero E6 [11]; 1 nM) | cell viability (Vero E6 [11]; 10 nM) | cell viability (Vero E6 [11]; 100 nM) | cell viability (Vero E6 [11]; 1000 nM) | cell viability (Vero E6 [11]; 10000 nM) | cell viability (HepG2 [12]; 1 nM) | cell viability (HepG2 [12]; 10 nM) | cell viability (HepG2 [12]; 100 nM) | cell viability (HepG2 [12]; 1000 nM) | cell viability (HepG2 [12]; 10000 nM) | cell viability (Calu-3 [13]; 1 nM) | cell viability (Calu-3 [13]; 10 nM) | cell viability (Calu-3 [13]; 100 nM) | cell viability (Calu-3 [13]; 1000 nM) | cell viability (Calu-3 [13]; 10000 nM) | cell viability (U2OS [14]; 1 nM) | cell viability (U2OS [14]; 10 nM) | cell viability (U2OS [14]; 100 nM) | cell viability (U2OS [14]; 1000 nM) | cell viability (U2OS [14]; 10000 nM) | cell viability (Caco-2 [15]; 1 nM) | cell viability (Caco-2 [15]; 10 nM) | cell viability (Caco-2 [15]; 100 nM) | cell viability (Caco-2 [15]; 1000 nM) | cell viability (Caco-2 [15]; 10000 nM)
1 | Oc1ccc2ccccc2c1SSc1c(O)ccc2ccccc12 [IPA-3] | 0 | 0 | 0 | 0 | 0 | > 10 µM | > 10 µM | > 10 µM | > 10 µM | > 10 µM | 99.7% | 101% | 102% | 102% | 95.8% | 104% | 109% | 89.2% | 106% | 103% | 96.3% | 109% | 99.8% | 107% | 111% | 93.2% | 96.6% | 97.6% | 98.3% | 92.9% | 98.9% | 94.9% | 91% | 95.7% | 92.9%
2 | CCCCCCNC(=O)Nc1ccc(S(=O)(=O)Nc2ccc(CCNC[C@H](O)COc3ccc(O)cc3)cc2)cc1 | 0 | 0 | 0 | 0 | 0 | > 10 µM | > 10 µM | > 10 µM | > 10 µM | > 10 µM | 92.7% | 95.8% | 91% | 96.2% | 110% | 95.6% | 110% | 92.1% | 103% | 107% | 105% | 96.8% | 93.5% | 102% | 88.3% | 106% | 96.6% | 101% | 99.9% | 103% | 102% | 82.7% | 102% | 102% | 104%
3 | O=C(Nc1ccc(Cl)nc1)c1ccc(Cl)cc1 | 0 | 0 | 0 | 0 | 0 | > 10 µM | > 10 µM | > 10 µM | > 10 µM | > 10 µM | 95.4% | 98.7% | 95.9% | 94.1% | 100% | 97.5% | 109% | 106% | 103% | 110% | 94.9% | 90.6% | 96.6% | 94.2% | 102% | 95.6% | 94.3% | 101% | 93.2% | 95.7% | 103% | 90.2% | 97.8% | 98.8% | 102%
4 | CCC(=O)O[C@H]1[C@H](O[C@@H]2[C@@H](C)[C@H](O[C@H]3C[C@@](C)(OC)[C@@H](O)[C@H](C)O3)[C@@H](C)C(=O)O[C@H](CC)[C@@](C)(O)[C@H](O)[C@@H](C)C(=O)[C@H](C)C[C@@]2(C)O)O[C@H](C)C[C@@H]1N(C)C [erythromycin-estolate] | 0 | 0 | 0 | 0 | 0 | > 10 µM | > 10 µM | > 10 µM | > 10 µM | > 10 µM | 96.9% | 95.9% | 101% | 96.4% | 102% | 99.7% | 104% | 104% | 93.2% | 100% | 91.3% | 96% | 91.4% | 88.6% | 99% | 98.7% | 98.4% | 101% | 104% | 104% | 96.2% | 102% | 97.5% | 99.4% | 97%
5 | CC(C)Nc1cccnc1N1CCN(C(=O)c2cc3cc(NS(C)(=O)=O)ccc3[nH]2)CC1 [delavirdine] | 0 | 0 | 0 | 0 | 0 | > 10 µM | > 10 µM | > 10 µM | > 10 µM | > 10 µM | 92.2% | 99% | 87.9% | 95.3% | 105% | 98.8% | 108% | 99.2% | 115% | 107% | 100% | 93% | 104% | 90.5% | 105% | 101% | 101% | 102% | 98.5% | 102% | 99.4% | 96.4% | 101% | 101% | 94.2%
6 | Cc1cc(C(C)(C)CC(C)(C)C)ccc1OCCOCC[N+](C)(C)Cc1ccccc1 [methylbenzethonium-chloride] | 0 | 0.3 | 1.3 | 0.6 | 5.4 | > 10 µM | > 10 µM | > 10 µM | > 10 µM | 1.51 µM | 95.9% | 98.5% | 92.2% | 98.3% | 106% | 92% | 105% | 98.1% | 108% | 81.2% | 103% | 103% | 91.4% | 89.8% | 80.5% | 101% | 94.7% | 102% | 98.9% | 82.2% | 95.2% | 102% | 99.3% | 85% | 42.5%
7 | Cc1cc2c(s1)Nc1ccccc1N=C2N1CCN(C)CC1 [olanzapine] | 0 | 0 | 0 | 0 | 0 | > 10 µM | > 10 µM | > 10 µM | > 10 µM | > 10 µM | 96.4% | 96.8% | 96% | 92.7% | 104% | 118% | 110% | 121% | 98.5% | 106% | 99% | 102% | 104% | 104% | 108% | 93.1% | 99% | 95.2% | 99.6% | 102% | 97.8% | 91.5% | 98.1% | 99.1% | 103%
8 | O=C1OC2(c3ccc(O)cc3Oc3cc(O)ccc32)c2ccccc21 [fluorescein] | 0 | 0 | 0 | 0 | 0 | > 10 µM | > 10 µM | > 10 µM | > 10 µM | > 10 µM | 102% | 94.6% | 106% | 107% | 101% | 97.9% | 99.1% | 108% | 94.7% | 97.7% | 97.5% | 101% | 101% | 93.6% | 101% | 99.5% | 101% | 95.2% | 97.7% | 92.5% | 108% | 116% | 117% | 120% | 98.3%
9 | C[N+]1(C)CCC(=C(c2ccccc2)c2ccccc2)CC1 [diphemanil] | 0 | 0 | 0 | 0 | 0 | > 10 µM | > 10 µM | > 10 µM | > 10 µM | > 10 µM | 105% | 108% | 103% | 99.9% | 102% | 113% | 98.1% | 108% | 97.6% | 110% | 95.3% | 107% | 110% | 96.1% | 102% | 101% | 99.7% | 95.5% | 97.7% | 97.4% | 97.2% | 100% | 95.7% | 101% | 93.6%
10 | CCOC(=O)C1=C[C@@H](OC(CC)CC)[C@H](NC(C)=O)[C@@H](N)C1 [oseltamivir-phosphate] | 0 | 0 | 0 | 0 | 0 | > 10 µM | > 10 µM | > 10 µM | > 10 µM | > 10 µM | 95.4% | 93.2% | 99.1% | 92.4% | 103% | 107% | 98.6% | 98% | 106% | 107% | 99.4% | 96.9% | 104% | 103% | 106% | 93.4% | 104% | 97.9% | 97.6% | 102% | 79.7% | 92.2% | 92.6% | 95.9% | 94%
11 | COC1(C2=NCCN2)COc2ccccc2O1 (stereo not given) | 0 | 0 | 0 | 0 | 0 | > 10 µM | > 10 µM | > 10 µM | > 10 µM | > 10 µM | 103% | 96% | 93.3% | 100% | 98.2% | 109% | 109% | 91.2% | 107% | 99.3% | 100% | 103% | 96% | 93% | 94.6% | 96.2% | 95.1% | 103% | 97.9% | 101% | 99.5% | 91.5% | 101% | 89.7% | 91.4%
